Laboratory results published in patent publication US12479877B2, “Methods for purifying steviol glycosides and uses of the same” (PureCircle Sdn. Bhd., priority 2010, dated 2025).
Entries after “also recorded” stand apart in the source; their conditions may differ.

What was measured:
Format in all cases: in vivo, human
panelists [1] = assay: Sensory properties in acidified water (pH 3.0) at 500 mg/L, 20 panelists; conditions: 500 ppm, acidified water pH 3.0, 20 panelists
Experimental: The sensory properties of Reb X were evaluated in acidified water (pH 3.0 by phosphoric acid) at 500 mg/L concentration by 20 panelists.

one experienced panelist = assay: Taste evaluation of Reb X against Reb A and Reb D, multi-sip and swallow taste method; conditions: for Taste Properties: 500 ppm in citric buffer (pH 3.22), room temperature
Experimental: The taste properties of a sample of Reb X were studied against Rebaudioside A (Reb A) and Rebaudioside D (Rb D) samples. Rb A was obtained from Cargill (lot #1040) and Reb-D was obtained from PureCircle (lot #11/3/08).
The samples were prepared at 500 ppm for sweetness evaluation by adding moisture compensated mass into a 100 mL sample of carbon-treated water and citric buffer solutions.
Citric buffer was prepared by mixing 1.171 g/L citric acid, 0.275 g/L sodium citrate and 0.185 g/L sodium benzoate with carbon-treated water, with a final pH of 3.22. The mixtures were moderately stirred at room temperature. The Reb X sample was then evaluated against the two control Reb A and Reb D samples in water and citric buffer at room temperature (RT) and at 4° C. in an ice bath by one experienced panelist for any tasting quality determinations using the controlled, multi-sip and swallow taste method shown below:
1. Take first sip (˜1.8 mL) of control and swallow. Wait for 15-25 sec, then take second sip of control and wait for 15-25 sec.
2. Take first sip of the experimental sample, wait for 15-25 sec, then take second sip. Compare to second sip of control.
3. Repeat steps #1 and #2 for the third and fourth sips of the control and experimental samples to confirm the initial finding.
The taste evaluation results of the Reb X samples against the control Reb A and Reb D samples at 500 ppm in citric buffer (CB) at 4° C. and RT are described in Table 4.

panelists [2] = assay: Sensory properties in acidified water (pH 3.0) at 500 mg/L, 20 panelists; conditions: 10,000 ppm, acidified water pH 3.0, 20 panelists

Compound	Astringent taste: Number of panelists detected the attribute (panelists [1])	Bitter taste: Number of panelists detected the attribute (panelists [1])	Licorice taste: Number of panelists detected the attribute (panelists [1])	Overall evaluation: Satisfactory (number of panelists of 20) (panelists [1])	Quality of sweet taste: Bitter aftertaste (number of panelists of 20) (panelists [1])	Sweet Aftertaste: Number of panelists detected the attribute (panelists [1])	Taste Properties (one experienced panelist)	Astringency, sweetness intense (depth) and bitterness notes (one experienced panelist; 500 ppm, citrate buffer system, compared with Reb A)	Astringent taste: Number of panelists detected the attribute (panelists [2])	Bitter taste: Number of panelists detected the attribute (panelists [2])	Licorice taste: Number of panelists detected the attribute (panelists [2])	Overall evaluation: Satisfactory (number of panelists of 20) (panelists [2])	Quality of sweet taste: Clean (number of panelists of 20) (panelists [2])	Sweet Aftertaste: Number of panelists detected the attribute (panelists [2])
C=C1C[C@@]23CC[C@H]4[C@@](C)(CCC[C@@]4(C)C(=O)O[C@@H]4O[C@H](CO)[C@@H](O)[C@H](O)[C@H]4O)[C@@H]2CC[C@]1(O[C@@H]1O[C@H](CO)[C@@H](O)[C@H](O[C@@H]2O[C@H](CO)[C@@H](O)[C@H](O)[C@H]2O)[C@H]1O[C@@H]1O[C@H](CO)[C@@H](O)[C@H](O)[C@H]1O)C3 [Reb A, Rebaudioside A]	20	20	20	(1 of 20)	(20 of 20)	20	Delayed sweetness onset, significant lingering sweet aftertaste,; also recorded: licorice and bitter off-notes							
C=C1C[C@@]23CC[C@H]4[C@@](C)(CCC[C@@]4(C)C(=O)O[C@@H]4O[C@H](CO)[C@@H](O)[C@H](O)[C@H]4O[C@@H]4O[C@H](CO)[C@@H](O)[C@H](O)[C@H]4O)[C@@H]2CC[C@]1(O[C@@H]1O[C@H](CO)[C@@H](O)[C@H](O[C@@H]2O[C@H](CO)[C@@H](O)[C@H](O)[C@H]2O)[C@H]1O[C@@H]1O[C@H](CO)[C@@H](O)[C@H](O)[C@H]1O)C3 [Reb D, Rebaudioside D]	3	3	2	(11 of 20)		5	Delayed sweetness onset, less sweetness linger as compared to Reb; also recorded: A, no bitter off-notes	did not have the astringency or sweetness intense (depth) and bitterness notes compared to that of the Reb A						
C=C1C[C@@]23CC[C@H]4[C@@](C)(CCC[C@@]4(C)C(=O)O[C@@H]4O[C@H](CO)[C@@H](O)[C@H](O)[C@H]4O)[C@@H]2CC[C@]1(O[C@@H]1O[C@H](CO)[C@@H](O)[C@H](O)[C@H]1O[C@@H]1O[C@H](CO)[C@@H](O)[C@H](O)[C@H]1O)C3 [Stevioside]	20	20	20	(0 of 20)	(20 of 20)	20								
OC[C@H]1O[C@@](CO)(O[C@H]2O[C@H](CO)[C@@H](O)[C@H](O)[C@H]2O)[C@@H](O)[C@@H]1O [Sucrose]									0	0	0	(20 of 20)	Clean (20	0
